Source: US20250325670A1, “NOVEL BORON AGENT” (priority 2021, published 2025)

Assays:
[1] = system: A549 cells (FRα(−)); experiment: BNCT antitumor effect in vitro (thermal neutron irradiation, MTT survival rate); type: cell-based, human; conditions: 25 ppm 10B, 3 hours, thermal neutron dose-dependent, MTT after 96 hours
Method: (A) Human brain tumor cell U87MG (FRα(+)), (B) human lung cancer cell A549 (FRα(−)). The cells were cultured for 3 hours with an agent ^10B at a concentration of 25 ppm, followed by removal of the agent and irradiated.
Cells (A549 1000 cells/well or U-87 MG 500 cells/well) seeded in a 96 well plate were cultured together with PBC-IP and L-BPA-fructose at a concentration of 25 ppm [^10B] at 37° C. for 3 hours, and then unilaterally irradiated with thermal neutrons from one side of the plate for 12 minutes. Subsequently, the medium was replaced, the cells were cultured for 96 hours, and then an MTT assay was carried out to evaluate the survival rate of the cells (FIG. 3). The thermal neutron irradiation was carried out by using the irradiation facility of the Institute for Integrated Radiation and Nuclear Science, Kyoto University (KUR), and the cells after irradiation were cultured in the controlled area of KUR. In addition, the survival rate is calculated based on the following expression.

[2] = Changes in body weight after BNCT irradiation; type: in vivo, mouse; conditions: 25 mg (10B)/kg iv, neutron irradiated
Method: As described in (A), the U-87 MG tumor-bearing mice were injected with 200 μL of a PBS solution of a boron compound (PBC-IP-HSA, L-BPA: 25 mg (^10B)/kg for each) through the tail vein. The whole mouse was placed in an acrylic mouse holder and fixed to a thermoplastic plate having a thickness of 5 mm. Three hours (L-BPA) or six hours (PBC-IP-HSA) after administration, the right thigh of the mouse was irradiated with a neutron in a dose range of 4.5 to 6.1×10^12 neutrons/cm^2 in the KUR reactor. The BNCT effect was evaluated based on the changes in tumor volume in the mouse (FIG. 4B). In order to determine the tumor volume, two perpendicular diameters of the tumor were measured with slide calipers and calculated by using the spherical volume expression {4/3π×(R/2)^3}. Here, R is the average of the longest dimension and the shortest dimension (each in millimeters) of the tumor.
In the irradiation experiment carried out in (B), changes in body weight after irradiation were measured.

[3] = system: A549, U87MG, C6, F98 cells; experiment: Intracellular boron accumulation in various cells (ICP-AES); type: cell-based, human, rat; conditions: 5 μg B/mL
Method: F98 rat malignant glioblastoma cells were provided by Dr. Rolf Barth (Department of Pathology, The Ohio State University, Columbus, OH, US) and were cultured at 37° C. in 5% CO^2 by using Dulbecco's modified Eagle's medium (DMEM) supplemented with 10% fetal bovine serum (FBS) and 10% penicillin/streptomycin/amphotericin B. The F98 rat malignant glioblastoma cells were histologically characterized as anaplastic astrocytoma.
First, 5×10^5 cells were placed in a 100 mm dish (Becton Dickinson, Franklin Lakes, New Jersey) and cultured at 37° C. in 5% CO2 by using the medium described above. […] After that, the medium containing the boron compound was removed, and the cells were washed twice with 4% phosphate buffered saline (PBS) and then detached with a trypsin-ethylenediaminetetraacetic acid solution. After that, a medium was added, centrifugation (200×g, 5 minutes) was carried out twice, and cells were counted and finally sedimented. After that, the cells were digested with a 1 N nitric acid solution (Wako Pure Chemical Industries, Osaka Japan) overnight, and the amount of boron taken up was measured by inductively coupled plasma-atomic emission spectroscopy (ICP-AES) using an iCAP6300 emission spectrometer (Hitachi High-Technologies, Tokyo, Japan).

[4] = system: F98 malignant glioblastoma; experiment: BNCT therapeutic effect (survival time) in F98 malignant glioblastoma cell-implanted rat brain tumor model; type: in vivo; conditions: after tumor implantation; BNCT with BPA (iv) or PBC-IP (CED)
Method: Three hours after administration of PBC-IP (CED), neutron irradiation was carried out to verify the therapeutic effect of neutron capture therapy (FIG. 7). The brain tumor models were divided into an untreated group, a neutron irradiation only group, a BNCT with BPA (iv) group, a BNCT with local administration of PBC-IP (CED) group, and a PBC-IP (CED) plus BPA (iv) group to carry out a treatment experiment, and the survival times after tumor implantation were compared. The therapeutic effect of intravenous BPA as a control for BNCT treatment represented a significant prolongation of survival time with a median survival time of 37 days. […] The effect was even higher in the group that received treatment with PBC-IP (CED) […] plus intravenous BPA, indicating the antitumor effect of PBC-IP on a BPA-refractory tumor site. In the C6-implanted rat brain tumor model, the tumor boron concentration by PBC-IP (CED) was about 36 ppm, which was higher than that for F98.
In a BNCT experiment, 14 days after implantation of 10^3 F98 malignant glioblastoma cells, neutron irradiation was carried out by using KURRI. Malignant glioblastoma cell-bearing rats were randomly divided into 5 groups (groups 1 to 5) so that each group consisted of 6 to 10 rats. […] The therapeutic effect was evaluated by the survival times of all rats.

Which “BNCT antitumor effect (cell survival rate)” value [1] does the source give for `N[C@@H](Cc1ccc(B(O)O)cc1)C(=O)O` [BPA] here?
Its value is “higher BNCT antitumor effect”.

And the “changes in body weight after irradiation compared with the control group” value [2]?
The value was “no significant difference”.

What about the “selective accumulation among the four types of cells” value [3] of the same molecule?
The value was “selective accumulation in the A549 cells”.

What about the median survival time [4] of the same molecule?
The median survival time was 37 days.
